Test results from the NIST ThermoML archive (doi:10.1016/j.tca.2011.02.043).
± gives the expanded uncertainty stated by the source.

How the values were obtained:
[1] = Molar enthalpy of transition or fusion; details: DSC
[2] = DTA
[3] = molar heat capacity at constant pressure; details: 101.33 kPa, Small sample (50 mg) DSC

[BH4-].[Li+] [lithium tetrahydroborate]
Details	Molar enthalpy of transition or fusion, [1] [kcal/mol]	Triple point temperature, [2] [K]
Crystal 1	1.96 ± 0.153	553 ± 1
Crystal 2	1.21 ± 0.0574	386.6 ± 0.5

[3]
Details	molar heat capacity at constant pressure [J/K/mol]
298 K, Crystal 2	81.51 ± 4.2
310 K, Crystal 2	84.51 ± 4.4
320 K, Crystal 2	87.33 ± 4.5
330 K, Crystal 2	89.53 ± 4.7
340 K, Crystal 2	91.21 ± 4.7
350 K, Crystal 2	92.47 ± 4.8
360 K, Crystal 2	95.46 ± 5
370 K, Crystal 2	101.2 ± 5.3
380 K, Crystal 2	106.02 ± 5.5
410 K, Crystal 1	91.06 ± 4.7
420 K, Crystal 1	91.83 ± 4.8
430 K, Crystal 1	93.09 ± 4.8
440 K, Crystal 1	94.12 ± 4.9
450 K, Crystal 1	95.43 ± 5
460 K, Crystal 1	96.7 ± 5
470 K, Crystal 1	97.95 ± 5.1
480 K, Crystal 1	99.14 ± 5.2
490 K, Crystal 1	100.69 ± 5.2
500 K, Crystal 1	101.9 ± 5.3
510 K, Crystal 1	103.3 ± 5.4
520 K, Crystal 1	104.78 ± 5.4
